Reference: patent US7795456B2, “Insecticidal N-substituted sulfoximines” (Dow AgroSciences LLC, priority 2004, dated 2010)

How the values were obtained:
[1] = tested on: cotton aphid (Aphis gossypii); assay: Insecticidal test for cotton aphid, foliar spray on squash; details: for pest or weed control at 50 ppm / pest or weed control at 200 ppm: Aphis gossypii, foliar, 72 h; for pest or weed control at 50 ppm: read-out: CA 50: % control at 50 ppm against cotton aphid in foliar spray tests; for pest or weed control at 200 ppm: read-out: CA 200: % control at 200 ppm against cotton aphid in foliar spray tests
[2] = tested on: beet armyworm (Spodoptera exigua); details: 50 μg/cm2, second-instar larvae, 5 days
[3] = tested on: fruit fly (Drosophila melanogaster); details: for FF 25: % mortality at 25 μg/cm2 against fruit fly in dietary tests: 25 μg/cm2, 48 h; for FF SYM: % showing intoxicated symptoms at 25 μg/cm2 against fruit fly in dietary tests: 25 μg/cm2, 4 h
[4] = tested on: corn earworm (Helicoverpa zea); details: 50 μg/cm2, second-instar larvae, 5 days
[5] = tested on: beet armyworm (Spodoptera exigua); assay: Insecticidal test for beet armyworm in injection assays; details: 1 h, read-out: BAW SYM: % showing intoxicated symptoms at 10 μg/larva against beet armyworm in injection tests
[6] = tested on: sweet potato whitefly (Bemisia tabaci); assay: Insecticidal test for sweet potato whitefly, foliar spray on cotton; details: Bemisia tabaci, in Gossypium hirsutum, foliar, read-out: SPW 200: % control at 200 ppm against sweet potato whitefly in foliar spray tests
[7] = tested on: green peach aphid (Myzus persicae); assay: Insecticidal test for green peach aphid, foliar spray on cabbage seedlings; details: rundown assay, 3 days

Row | Structure (SMILES) | pest or weed control at 50 ppm [1] [%] | pest or weed control at 200 ppm [1] [%] | BAW 50: % mortality at 50 μg/cm2 against beet armyworm in dietary tests [2] | FF 25: % mortality at 25 μg/cm2 against fruit fly in dietary tests [3] | CEW 50: % mortality at 50 μg/cm2 against corn earworm in dietary tests [4] | other results
1 | CC(Cc1ccc(Cl)nc1)CS(C)(=O)=NC#N (stereo not shown) [Compound 2, [3-(6-Chloropyridin-3-yl)-2-methylpropyl](methyl)oxido-λ^4-sulfanylidenecyanamide] | 80 to 89 | 90 to 100 | G (Inactive) | G (Inactive) | G (Inactive) | –
2 | CC(Cc1ccc(Cl)nc1)CS(C)(=O)=N[N+](=O)[O-] (stereo not shown) [Compound 3, 2-chloro-5-(2-methyl-3-{methyl(oxido)[oxido-(oxo)hydrazono]-λ^4-sulfanyl}propyl)pyridine] | – | 80 to 89 | G (Inactive) | G (Inactive) | G (Inactive) | –
3 | CC(CS(C)(=O)=N[N+](=O)[O-])c1ccc(Cl)nc1 (stereo not shown) [Compound 4, 2-Chloro-5-(1-methyl-2-{methyl(oxido)[oxido(oxo)hydrazono]-λ^4-sulfanyl}ethyl)pyridine] | – | < 50 | G (Inactive) | G (Inactive) | G (Inactive) | pest or weed control at 0.01 mg [5]: < 50%
4 | N#CN=S1(=O)CCCCC1 [Compound 6, 1-Oxidohexahydro-1λ^4-thiopyran-1-ylidenecyanamide] | – | – | G (Inactive) | G (Inactive) | G (Inactive) | –
5 | COC(=O)N=S1(=O)CCCC1Cc1ccc(Cl)nc1 (stereo not shown) [Compound 7, methyl 2-[(6-chloropyridin-3-yl)methyl]-1-oxidotetrahydro-1H-1λ^4-thien-1-ylidenecarbamate] | – | 80 to 89 | G (Inactive) | G (Inactive) | G (Inactive) | –
6 | CC(CS(C)(=O)=NC#N)c1ccc(Cl)nc1 (stereo not shown) [Compound 15] | 80 to 89 | 90 to 100 | G (Inactive) | G (Inactive) | G (Inactive) | –
7 | CC[S@@](=O)(C[C@H](C)c1ccc(Cl)nc1)=NC#N [Compound 16] | 90 to 100 | 90 to 100 | G (Inactive) | G (Inactive) | G (Inactive) | pest or weed control at 0.01 mg [5]: < 50%
8 | CC[S@@](=O)(C[C@@H](C)c1ccc(Cl)nc1)=NC#N [Compound 17] | 90 to 100 | 90 to 100 | G (Inactive) | G (Inactive) | G (Inactive) | –
9 | CC[S@](=O)(=NC#N)[C@@H](C)c1ccc(Cl)nc1 [Compound 19] | 90 to 100 | 90 to 100 | G (Inactive) | F (Less than 50) | G (Inactive) | pest or weed control at 200 ppm [6]: 70 to 79%
10 | N#CN=S1(=O)CCCC1c1ccccc1 (stereo not shown) [Compound 22, (1-oxido-2-phenyltetrahydro-1H-11^4-thien-1-ylidene)cyanamide] | 80 to 89 | 90 to 100 | G (Inactive) | G (Inactive) | G (Inactive) | pest or weed control at 0.01 mg [5]: < 50%
11 | Cc1ccc(CC2CCCS2(=O)=NC#N)cn1 (stereo not shown) [Compound 30] | 90 to 100 | 90 to 100 | G (Inactive) | G (Inactive) | G (Inactive) | –
12 | CC(C)[C@H]1CCCS1(=O)=NC#N (stereo partly shown) [Compound 31] | – | 90 to 100 | G (Inactive) | G (Inactive) | G (Inactive) | –
13 | CS(=O)(Cc1ccc(Cl)nc1)=N[N+](=O)[O-] (stereo not shown) [Compound 33] | 90 to 100 | 90 to 100 | G (Inactive) | F (Less than 50) | G (Inactive) | FF SYM: % showing intoxicated symptoms at 25 μg/cm2 against fruit fly in dietary tests [3]: F (Less than 50)
14 | CC(c1ccc(Cl)nc1)S(C)(=O)=N[N+](=O)[O-] (stereo not shown) [Compound 36] | 90 to 100 | 90 to 100 | G (Inactive) | F (Less than 50) | G (Inactive) | % Control at ppm, against cotton aphid: 0.049 ([1]; 0.049 ppm, rundown assay): F (Less than 50); % Control at ppm, against cotton aphid: 0.195 ([1]; 0.195 ppm, rundown assay): F (Less than 50); % Control at ppm, against cotton aphid: 0.78 ([1]; 0.78 ppm, rundown assay): C (70-79); % Control at ppm, against cotton aphid: 3.12 ([1]; 3.12 ppm, rundown assay): A (90-100); % Control at ppm, against cotton aphid: 12.5 ([1]; 12.5 ppm, rundown assay): A (90-100); % Control at ppm, against cotton aphid: 50 ([1]; 50 ppm, rundown assay): A (90-100); FF SYM: % showing intoxicated symptoms at 25 μg/cm2 against fruit fly in dietary tests [3]: F (Less than 50); % Control at ppm, against green peach aphid: 0.049 ([7]; 0.049 ppm): F (Less than 50); % Control at ppm, against green peach aphid: 0.195 ([7]; 0.195 ppm): E (50-59); % Control at ppm, against green peach aphid: 0.78 ([7]; 0.78 ppm): D (60-69); % Control at ppm, against green peach aphid: 3.12 ([7]; 3.12 ppm): C (70-79); % Control at ppm, against green peach aphid: 12.5 ([7]; 12.5 ppm): A (90-100); % Control at ppm, against green peach aphid: 50 ([7]; 50 ppm): A (90-100)
15 | CS(=O)(CCc1ccc(Cl)nc1)=N[N+](=O)[O-] (stereo not shown) [Compound 37] | 90 to 100 | 90 to 100 | G (Inactive) | G (Inactive) | G (Inactive) | –
16 | CC[S@](=O)(=N[N+](=O)[O-])[C@H](C)c1ccc(Cl)nc1 [Compound 39] | – | 90 to 100 | G (Inactive) | F (Less than 50) | G (Inactive) | –
17 | CC[S@](=O)(=N[N+](=O)[O-])[C@@H](C)c1ccc(Cl)nc1 [Compound 40] | – | 80 to 89 | G (Inactive) | G (Inactive) | G (Inactive) | –
18 | CCOc1ccc(S(C)(=O)=NC#N)cn1 (stereo not shown) [Compound 42, (6-Ethoxypyridin-3-yl)(methyl)oxido-λ^4-sulfanylidenecyanamide] | 70 to 79 | 90 to 100 | G (Inactive) | G (Inactive) | G (Inactive) | –
